ChEMBL document CHEMBL5236589, “Design and Structural Optimization of Orally Bioavailable SOS1 Inhibitors for the Treatment of KRAS-Driven Carcinoma” (J Med Chem, 2022)
Calls of active or inactive are those of the source. The rule behind the calls is not given here.

How the values were obtained:
[1] = molecular target: SOS1-KRAS (Homo sapiens, UniProt Q07889); assay: Inhibition of human recombinant SOS1 (residue 564-1049)/KRAS G12C mutant protein-protein interaction at incubated for 25 degC for 60 mins by homogeneous time-resolved fluorescence (HTRF) method
[2] = Inhibition of SOS1/KRAS G13D mutant protein-protein interaction in human DLD-1 cells assessed as ERK1/2 phosphorylation measured after 1 hr by homogeneous time-resolved fluorescence (HTRF) method; type: cell-based; conditions: DLD-1, 1 h
[3] = Half life in ICR mouse at 20 mg/kg, po by LC-MS/MS analysis; type: ADME, organism-based; conditions: in vivo; for half-life: ICR; for t1/2: po, 20 mg/kg
[4] = Tmax in ICR mouse at 20 mg/kg, po by LC-MS/MS analysis; type: ADME, organism-based; conditions: in vivo
[5] = Cmax in ICR mouse at 20 mg/kg, po by LC-MS/MS analysis; type: ADME, organism-based; design: dose 20 mg/kg, route po; conditions: in vivo
[6] = AUC in ICR mouse at 20 mg/kg, po by LC-MS/MS analysis; type: ADME, organism-based; design: dose 20 mg/kg, route po; conditions: in vivo
[7] = MRT in ICR mouse at 20 mg/kg, po by LC-MS/MS analysis; type: ADME, organism-based; conditions: in vivo
[8] = Elimination rate constant in ICR mouse at 20 mg/kg, po by LC-MS/MS analysis; type: ADME, organism-based; conditions: in vivo; for k el: ICR; for Kel: po, 20 mg/kg
[9] = Toxicity in BALB/c mouse xenografted with human MIA PaCa-2 cells harboring KRAS G12C mutant assessed as change in body weight at 50 mg/kg, po once a day measured for 16 days; type: organism-based; conditions: in vivo, 384 h, time 16 day
[10] = test system: MIA PaCa-2; assay: In vivo antitumor activity against human MIA PaCa-2 cells harboring KRAS G12C mutant xenografted in BALB/c mouse assessed as reduction in tumor volume at 50 mg/kg, po once a day measured for 16 days relative to control; type: functional; design: scale not given: the % may be the effect or the level left; conditions: time 16 day
[11] = Toxicity in BALB/c mouse xenografted with human MIA PaCa-2 cells harboring KRAS G12C mutant assessed as mortality at 50 mg/kg, po once a day measured for 16 days; type: organism-based; conditions: in vivo, 384 h, time 16 day
[12] = test system: NCI-H358; assay: Antiproliferative activity against human NCI-H358 cells harboring SOS1/KRAS G12C mutant measured after 24 hrs by AlamarBlue based 3-D proliferation assay; type: functional, cell-based
[13] = Half life in ICR mouse at 10 mg/kg, po by LC-MS/MS analysis; type: ADME, organism-based; conditions: in vivo
[14] = Tmax in ICR mouse at 10 mg/kg, po by LC-MS/MS analysis; type: ADME, organism-based; conditions: in vivo
[15] = Cmax in ICR mouse at 10 mg/kg, po by LC-MS/MS analysis; type: ADME, organism-based; design: dose 10 mg/kg, route po; conditions: in vivo
[16] = AUC in ICR mouse at 10 mg/kg, po by LC-MS/MS analysis; type: ADME, organism-based; design: dose 10 mg/kg, route po; conditions: in vivo
[17] = MRT in ICR mouse at 10 mg/kg, po by LC-MS/MS analysis; type: ADME, organism-based; conditions: in vivo
[18] = Elimination rate constant in ICR mouse at 10 mg/kg, po by LC-MS/MS analysis; type: ADME, organism-based; conditions: in vivo

SOS1-KRAS, sequence (Q07889 whole entry, looked up, stated change not applied): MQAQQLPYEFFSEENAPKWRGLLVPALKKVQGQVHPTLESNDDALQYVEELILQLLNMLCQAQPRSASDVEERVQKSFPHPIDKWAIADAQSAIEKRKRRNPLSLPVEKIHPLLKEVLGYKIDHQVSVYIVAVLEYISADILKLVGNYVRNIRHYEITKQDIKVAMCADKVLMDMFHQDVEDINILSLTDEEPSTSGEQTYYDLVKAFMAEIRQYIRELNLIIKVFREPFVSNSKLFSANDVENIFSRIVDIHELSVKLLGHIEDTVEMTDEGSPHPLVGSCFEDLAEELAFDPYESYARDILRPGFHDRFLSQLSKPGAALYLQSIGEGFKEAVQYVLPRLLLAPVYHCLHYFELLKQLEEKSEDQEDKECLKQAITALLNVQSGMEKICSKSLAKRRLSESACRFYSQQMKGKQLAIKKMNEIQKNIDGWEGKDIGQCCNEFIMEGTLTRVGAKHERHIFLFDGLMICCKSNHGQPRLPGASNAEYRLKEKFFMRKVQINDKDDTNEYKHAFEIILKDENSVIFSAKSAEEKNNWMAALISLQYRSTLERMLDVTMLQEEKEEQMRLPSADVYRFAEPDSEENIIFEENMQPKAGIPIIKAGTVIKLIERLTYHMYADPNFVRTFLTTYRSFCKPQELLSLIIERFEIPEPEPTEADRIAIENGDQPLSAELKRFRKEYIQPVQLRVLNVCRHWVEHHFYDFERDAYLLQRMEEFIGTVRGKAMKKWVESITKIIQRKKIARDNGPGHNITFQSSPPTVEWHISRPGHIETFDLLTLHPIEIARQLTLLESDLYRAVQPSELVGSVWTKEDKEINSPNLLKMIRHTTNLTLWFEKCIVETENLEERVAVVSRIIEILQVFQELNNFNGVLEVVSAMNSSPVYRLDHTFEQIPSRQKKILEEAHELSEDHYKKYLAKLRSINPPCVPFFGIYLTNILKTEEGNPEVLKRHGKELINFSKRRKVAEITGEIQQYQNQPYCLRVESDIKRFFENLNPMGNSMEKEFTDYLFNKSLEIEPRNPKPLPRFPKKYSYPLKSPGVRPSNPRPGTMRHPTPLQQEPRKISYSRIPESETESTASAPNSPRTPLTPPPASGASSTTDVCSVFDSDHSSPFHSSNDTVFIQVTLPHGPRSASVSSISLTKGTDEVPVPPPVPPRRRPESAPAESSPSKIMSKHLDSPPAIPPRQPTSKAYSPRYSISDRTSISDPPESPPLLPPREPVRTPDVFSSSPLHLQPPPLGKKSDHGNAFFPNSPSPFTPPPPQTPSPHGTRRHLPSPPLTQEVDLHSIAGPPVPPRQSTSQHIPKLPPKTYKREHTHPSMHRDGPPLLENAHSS

Structure (SMILES) | IC50 [1] [nM] | IC50 [2] [nM] | half-life [3] [h] | Tmax [4] [h] | Cmax [5] [ng/mL] | AUC [6] [ng·h/mL] | MRT [7] [h] | k el [8] [s⁻¹] | further results
CC(=O)N1CCOc2cc3nc(C)nc(N[C@H](C)c4cc(N)cc(C(F)(F)F)c4)c3cc21 | 122 | 780 |  |  |  |  |  |  | 
Cc1nc(N[C@H](C)c2cccc(C(F)F)c2F)c2cc3c(cc2n1)OC[C@H]1CN(C(=O)C2(C#N)CC2)CCN31 |  | 14 | 3.87 | 1.33 | 600 | 4460 | 4.43 | 5e-05 | 
Cc1nc(N[C@H](C)c2cccc(C(F)F)c2F)c2cc3c(cc2n1)OC[C@H]1CN(C(=O)[C@@H]2CCOC2)CCN31 |  | 21 | 18 | 8 | 47 | 780 | 9.65 | 8.33e-06 | 
CC(=O)N1CCN2c3cc4c(N[C@H](C)c5cccc(C(F)F)c5F)nc(C)nc4cc3OCC2C1 (some centres not stated) | 8.8 | 19 |  |  |  |  |  |  | 
Cc1nc(N[C@H](C)c2cc(N)cc(C(F)(F)F)c2)c2cc3c(cc2n1)OC[C@H]1CN(C)CCN31 | 7.3 | 11 |  |  |  |  |  |  | 
Cc1nc(N[C@H](C)c2cccc(C(F)F)c2F)c2cc3c(cc2n1)OC[C@H]1CN(C(=O)N2CCOCC2)CCN31 |  | 9.7 | 1.78 | 0.5 | 356 | 872 | 2.14 | 0.0001 | 
CC(=O)N1CCN2c3cc4c(N[C@H](C)c5cccc(C(F)F)c5F)nc(C)nc4cc3OC[C@@H]2C1 | 13.8 | 38 |  |  |  |  |  |  | 
Cc1nc(N[C@H](C)c2cccc(C(F)F)c2F)c2cc3c(cc2n1)OC[C@H]1CN(C(=O)[C@@H]2C[C@H]2F)CCN31 |  | 6 | 6.67 | 5.67 | 651 | 4010 | 4.08 | 2.78e-05 | Activity [9]: Non-Toxic; Activity [10]: 49%; Activity [11]: Non-Toxic
Cc1nc(N[C@H](C)c2cc(N)cc(C(F)(F)F)c2)c2cc3c(cc2n1)OC[C@H]1CN(C2COC2)CCN31 | 15.6 | 45 |  |  |  |  |  |  | 
Cc1nc(N[C@H](C)c2cc(N)cc(C(F)(F)F)c2)c2cc3c(cc2n1)OC[C@H]1COCCN31 | 6 | 38 |  |  |  |  |  |  | 
Cc1nc(N[C@H](C)c2cccc(C(F)F)c2F)c2cc3c(cc2n1)OC[C@H]1CN(C(=O)N(C)C)CCN31 |  | 2.9 | 12.3 | 3 | 621 | 3980 | 4.2 | 2.5e-05 | 
Cc1nc(N[C@H](C)c2cccc(C(F)F)c2F)c2cc3c(cc2n1)OC[C@H]1CN(C(=O)C2CCO2)CCN31 (some centres not stated) |  | 16 |  | 5.67 | 97.1 | 534 | 4.55 |  | t1/2 [3]: 14.3 h; Kel [8]: 0.13 h⁻¹
Cc1nc(N[C@H](C)c2cc(N)cc(C(F)(F)F)c2)c2cc3c(cc2n1)OC[C@H]1CN(C2CCOCC2)CCN31 | 18 | 48 |  |  |  |  |  |  | 
Cc1nc(N[C@H](C)c2cccc(C(F)F)c2F)c2cc3c(cc2n1)OC[C@H]1CN(C(=O)C2(F)CC2)CCN31 |  | 1.7 | 2.34 | 1.5 | 582 | 2100 | 2.59 | 8.33e-05 | 
CC(=O)N1CCN2c3cc4c(N[C@H](C)c5cc(N)cc(C(F)(F)F)c5)nc(C)nc4cc3OC[C@H]2C1 | 4.3 | 4.7 |  |  |  |  |  |  | Activity [12]: Active; half-life [13]: 1.49 h; Tmax [14]: 1 h; Cmax [15]: 8.89 ng/mL; AUC [16]: 53.5 ng·h/mL; MRT [17]: 10.1 h; k el [18]: 0.000142 s⁻¹
Cc1nc(N[C@H](C)c2cccc(C(F)F)c2F)c2cc3c(cc2n1)OC[C@H]1CN(C(=O)C2COC2)CCN31 |  | 25 | 3.73 | 3 | 260 | 2010 | 4.58 | 5e-05 | 
CNC(=O)N1CCN2c3cc4c(N[C@H](C)c5cccc(C(F)F)c5F)nc(C)nc4cc3OC[C@H]2C1 |  | 15 |  | 8 | 751 | 2830 | 5.62 |  | t1/2 [3]: 14.5 h; Kel [8]: 0.26 h⁻¹
CC(=O)N1CCN2c3cc4c(N[C@H](C)c5cccc(C(F)(F)CO)c5F)nc(C)nc4cc3OC[C@H]2C1 | 2.7 | 1.4 |  |  |  |  |  |  | Activity [12]: Active
CC(=O)N1CCN2c3cc4c(N[C@H](C)c5cccc(C(F)(F)C(C)(C)O)c5F)nc(C)nc4cc3OC[C@H]2C1 | 12.7 | 10 |  |  |  |  |  |  | half-life [13]: 3.24 h; Tmax [14]: 0.625 h; Cmax [15]: 5.03 ng/mL; AUC [16]: 7.7 ng·h/mL; MRT [17]: 1 h; k el [18]: 3.89e-05 s⁻¹
COCC(=O)N1CCN2c3cc4c(N[C@H](C)c5cccc(C(F)F)c5F)nc(C)nc4cc3OC[C@H]2C1 |  | 10 | 5.86 | 0.83 | 180 | 860 | 3.43 | 3.06e-05 | 
Cc1nc(N[C@H](C)c2cc(N)cc(C(F)(F)F)c2)c2cc3c(cc2n1)OCCO3 | 904 | 690 |  |  |  |  |  |  | 
COCC1(C(=O)N2CCN3c4cc5c(N[C@H](C)c6cccc(C(F)F)c6F)nc(C)nc5cc4OC[C@H]3C2)CC1 |  | 0.9 | 2.28 | 0.25 | 161 | 398 | 2.62 | 8.33e-05 | 
Cc1nc(N[C@H](C)c2cccc(C(F)F)c2F)c2cc3c(cc2n1)OC[C@H]1CN(C(=O)NC2CC2)CCN31 |  | 8 |  | 6 | 557 | 3490 | 4.36 |  | Activity [9]: Non-Toxic; Activity [10]: 47%; Activity [11]: Non-Toxic; t1/2 [3]: 12.6 h; Kel [8]: 0.14 h⁻¹
COCCC(=O)N1CCN2c3cc4c(N[C@H](C)c5cccc(C(F)F)c5F)nc(C)nc4cc3OC[C@H]2C1 |  | 9.5 | 3.85 | 2.92 | 674 | 3340 | 3.45 | 5e-05 | 
Cc1nc(N[C@H](C)c2cccc(C(F)F)c2F)c2cc3c(cc2n1)OC[C@H]1CN(C(=O)C2CCOCC2)CCN31 |  | 18 | 2.13 | 0.91 | 241 | 646 | 2.46 | 9.44e-05 | 
CC(=O)N1CCN2c3cc4c(N[C@H](C)c5cc(N)cc(C(F)(F)F)c5)nc(C)nc4cc3OC[C@@H]2C1 | 12.8 | 48 |  |  |  |  |  |  | 
